Publication PMC4919791, “Effect of curcumin analogs onα-synuclein aggregation and cytotoxicity” (Scientific Reports, 2016)
Entries after “also recorded” stand apart in the source; their conditions may differ.

Key:
[1] = Stability of curcumin analogs by time-dependent intrinsic fluorescence; format: physicochemical; conditions: 20 mM MES buffer pH 6.0, 0.01% NaN3, 37 °C
Method: 1μl of this DMSO-stock solution was transferred to 2 ml microfuge tube and 1 ml of 20 mM MES buffer (pH 6.0, 0.01% NaN3) was added to it and mixed immediately by vortexing. These solutions were incubated at 37 °C and their respective fluorescence was taken at certain time intervals. The fluorescence was monitored by placing the 200 μl of the incubated solution in 0.1 cm path-length quartz cuvette (Hellma, Forest Hills, NY) and the spectra were acquired by using FluoroMax-4 spectrofluorometer (HORIBA JobinYvon) instrument with excitation and emission slit widths of 5 nm and 10 nm respectively. The fluorescence intensity maxima for each sample were plotted against time of incubation and fitted in exponential decay 1 in the Origin 8.0 software according to manufacture’s protocol (Fig. 2A).

preformed α-Syn fibrils [2] = molecular target: T1, preformed α-Syn fibrils (Homo sapiens, UniProt P37840); assay: LDH cytotoxicity assay of preformed α-Syn fibrils incubated with curcumin analogs; format: cell-based; conditions: fibrils incubated with analog 48 h; SH-SY5Y cells
T1 construct: made in house; host or cells: Escherichia coli BL21
Method: The concentration of the fibrils was determined by subtraction of supernatant concentration from the original concentration of α-Syn kept for fibrillation.
The percent LDH release was plotted as difference in the absorbance value of 490 nm and 690 nm, considering 100% release for the TritonX-100 treated cells.

preformed α-Syn fibrils [3] = molecular target: T1, preformed α-Syn fibrils; assay: Nile red binding assay on preformed α-Syn fibrils; format: biochemical; conditions: fibrils incubated with analog 48 h
Method: Stock solution of NR was prepared in DMSO (1 mM). […] Similar experimental protocol was used for NR binding to oligomers. FluoroMax-4 spectrofluorometer (HORIBA JobinYvon) was used with excitation and emission slit widths of 5 nm. The maximum NR fluorescence obtained at ~630 nm was used for plotting bar diagrams.

preformed α-Syn fibrils [4] = molecular target: T1, preformed α-Syn fibrils; assay: CD spectroscopy of preformed α-Syn fibrils with analogs; format: biochemical; conditions: 0 h and 48 h of incubation
Method: Further, the effect of curcumin analogs on the secondary structure of protein in preformed amyloid fibrils was studied by circular dichroism (CD) spectroscopy at 0 h and after 48 h of incubation. […] To further validate this, Fourier transform infrared spectroscopy (FTIR) was also performed with these samples, where spectra were recorded from 1500 to 1800 cm^−1.The region characteristic of protein secondary structures (1600–1700 cm^−1) was deconvoluted and the peaks were assigned according to published reports. FTIR spectra in the 1600–1700 cm^−1 region of preformed α-Syn fibrils in absence and presence of curcumin and its analogs are presented in Figs 4B and S4 and their percentage of secondary structures are shown in Table-S1.
20 μl of protein solution from 80 μM stock was diluted to 200 μl in 20 mM MES buffer, pH 6.0 with 0.01% NaN3 such that final protein concentration becomes 8 μM. The protein solution was then placed into a quartz cell (Hellma, Forest Hills, NY) of 0.1 cm path-length. Spectra were recorded using JASCO-810 instrument at 25 °C. Spectra acquisition was over the wavelength range of 198–260 nm with the scan speed of 100 nm/min, bandwidth 1 nm, data pitch 1 nm and response time of 1 sec. Processing of raw data was done by subtraction of buffer spectra and subsequently smoothing according to the manufacturer’s instructions.

α-Syn oligomers [5] = molecular target: T2, α-Syn oligomers (Homo sapiens, UniProt P37840); assay: Calcein-AM/EthD-1 staining, α-Syn oligomers with C1/C6; format: cell-based; conditions: SH-SY5Y cells
T2 construct: made in house; host or cells: Escherichia coli BL21
Excerpt: It has been shown that α-Syn mutants that form oligomers preferentially are more toxic and kill dopaminergic neurons in animal models as compared to fibril forming mutants. Therefore, compounds that effectively reduce the toxicity of oligomers could be beneficial for the treatment of PD. In the present study, we tested the effect of curcumin and its analogs on the toxicity, hydrophobic exposure and morphology of α-Syn oligomers isolated using size exclusion chromatography (SEC). The toxicity of α-Syn oligomers in presence and absence of curcumin/analogs were initially tested using MTT assay. […] As previously it has been proposed that curcumin reduces the oligomers toxicity by altering their exposed hydrophobic surface, we also measured the hydrophobic surface exposure of preformed α-Syn oligomers incubated with curcumin and its analogs.
For this assay, SH-SY5Y cells were seeded in 96 well plate and incubated with identical concentrations of oligomers/fibrils (as used in MTT assay) in absence and presence of curcumin and its analogs for 36 h in 5% CO2 incubator at 37 °C. […] Calcein-AM/Ethidium homodimer-1 signal was then checked and imaged with an inverted fluorescence microscope (Leica DMi8). […] The free calcein emits strong fluorescence signal at ~535 nm, which could be easily observed in the green channel of a microscope. […]

α-Syn oligomers [6] = molecular target: T2, α-Syn oligomers; assay: TEM of α-Syn oligomers with C1/C6; format: biochemical
Excerpt: It has been shown that α-Syn mutants that form oligomers preferentially are more toxic and kill dopaminergic neurons in animal models as compared to fibril forming mutants. Therefore, compounds that effectively reduce the toxicity of oligomers could be beneficial for the treatment of PD. In the present study, we tested the effect of curcumin and its analogs on the toxicity, hydrophobic exposure and morphology of α-Syn oligomers isolated using size exclusion chromatography (SEC). The toxicity of α-Syn oligomers in presence and absence of curcumin/analogs were initially tested using MTT assay. […] To further validate the effectiveness of C6 to reduce the cytotoxicity of α-Syn oligomers, we also performed LDH cytotoxicity assay and Calcein-AM/Ethidium homodimer-1 staining. […] As previously it has been proposed that curcumin reduces the oligomers toxicity by altering their exposed hydrophobic surface, we also measured the hydrophobic surface exposure of preformed α-Syn oligomers incubated with curcumin and its analogs.
5 μl of various species of α-Syn (50 μM) incubated in absence and presence of curcumin and its analogs were spotted on carbon coated formavar grid and air dried for 10 min. The samples were then washed thrice with autoclaved MQ. The samples were then stained with 10 μl of uranyl formate 1% (w/v) and incubated in dark for 10 min. […]

α-Syn oligomers [7] = molecular target: T2, α-Syn oligomers; assay: Binding affinity to α-Syn oligomers by curcumin analog fluorescence; conditions: compound fluorescence; read-out: dissociation constant (Kd) for α-Syn oligomers
Method: Immediately after incubation, fluorescence study was performed (for the excitation and emission ranges for each compounds, see Fig. S1). Experiments were performed using FluoroMax-4 spectrofluorometer (HORIBA JobinYvon) with excitation and emission slit widths of 5 nm.
The data were analyzed in Graphpad Prism software according to established method as used previously.

α-Syn fibrils = molecular target: T3, α-Syn fibrils (Homo sapiens, UniProt P37840); assay: MTT assay of α-Syn fibrils formed in presence of curcumin analogs; format: cell-based; conditions: 10 μM α-Syn fibril, 36 h, SH-SY5Y
T3 construct: made in house; host or cells: Escherichia coli BL21
Method: Next, we measured the effect of α-Syn fibrils formed in presence and absence of curcumin analogs on the viability of SH-SY5Y neuronal cell line by MTT reduction assay. SH-SY5Y cells were incubated with 10 μM α-Syn fibril formed in presence of various curcumin analogs for 36 h. […] However, the extent of decrease in toxicity was different for different analogs. […] The calcein-AM/ethidium homodimer-1 staining also further corroborated the results obtained from MTT and LDH assay (Fig. 8C).

## COc1cc(/C=C/C(=O)CC(=O)/C=C/c2ccc(OCc3ccccc3)c(OC)c2)ccc1OCc1ccccc1 [C6]
[1]
  relative stability compared with curcumin (slope of normalized fluorescence versus time): relatively more stable than curcumin
Preformed α-Syn fibrils [2]
  effect on cell death by preformed α-Syn fibrils, LDH: decrease in cell death
Preformed α-Syn fibrils [3]
  Nile red fluorescence of preformed α-Syn fibrils (exposed hydrophobic surface): less NR fluorescence for fibrils as compared to curcumin
Preformed α-Syn fibrils [4]
  secondary structure of preformed α-Syn fibrils by CD: remains unaltered
α-Syn oligomers [5]
  ethidium homodimer staining with α-Syn oligomers: less ethidium homodimer staining
α-Syn oligomers [6]
  morphology of α-Syn oligomers (TEM): significantly altered their morphology
α-Syn oligomers [7]
  Kd: 16.1 ± 3.81 µM
α-Syn fibrils
  toxicity of α-Syn fibrils formed in presence of analog, MTT: maximum cell viability; also recorded: less toxicity to cells
